In ChEMBL document CHEMBL1201862, “PubChem BioAssay data set” (2004):
Calls of active or inactive are those of the source.

Columns and labels:
[1] = Late stage counterscreen for inhibitors of Trypanosoma brucei methionyl tRNA synthetase (MetRS): Luminescence-based cell-based high throughput dose response assay to identify compounds that are cytotoxic to Jurkat human T lymphocyte cells.; format: functional
[2] = Late-stage results from the probe development effort to identify antagonists of arginine vasopressin receptor 1a (AVPR1a): fluorescence-based cell-based dose response AVPR1a inhibition assay.; format: functional
Vasopressin V2 receptor = Vasopressin V2 receptor (Homo sapiens, UniProt P30518); assay: Late-stage results from the probe development effort to identify antagonists of arginine vasopressin receptor 1a (AVPR1a): fluorescence-based cell-based dose response AVPR2 inhibition counterscreen assay.; format: functional
Vasopressin V1b receptor = Vasopressin V1b receptor (Homo sapiens, UniProt P47901); assay: Late-stage results from the probe development effort to identify antagonists of arginine vasopressin receptor 1a (AVPR1a): fluorescence-based cell-based dose response AVPR1b inhibition counterscreen assay.; format: functional
[3] = Late-stage results from the probe development effort to identify antagonists of arginine vasopressin receptor 1a (AVPR1a): fluorescence-based cell-based dose response OXTR inhibition counterscreen assay.; format: functional
[4] = target: 1-phosphatidylinositol 4,5-bisphosphate phosphodiesterase beta-3 (Homo sapiens, UniProt Q01970); assay: Fluorescence-based biochemical high throughput dose response assay to identify inhibitors of phospholipase C isozymes (PLC-B3).
[5] = target: T1, Histone-lysine N-methyltransferase NSD2 (Homo sapiens, UniProt O96028); format: biochemical
T1 sequence (O96028 whole entry): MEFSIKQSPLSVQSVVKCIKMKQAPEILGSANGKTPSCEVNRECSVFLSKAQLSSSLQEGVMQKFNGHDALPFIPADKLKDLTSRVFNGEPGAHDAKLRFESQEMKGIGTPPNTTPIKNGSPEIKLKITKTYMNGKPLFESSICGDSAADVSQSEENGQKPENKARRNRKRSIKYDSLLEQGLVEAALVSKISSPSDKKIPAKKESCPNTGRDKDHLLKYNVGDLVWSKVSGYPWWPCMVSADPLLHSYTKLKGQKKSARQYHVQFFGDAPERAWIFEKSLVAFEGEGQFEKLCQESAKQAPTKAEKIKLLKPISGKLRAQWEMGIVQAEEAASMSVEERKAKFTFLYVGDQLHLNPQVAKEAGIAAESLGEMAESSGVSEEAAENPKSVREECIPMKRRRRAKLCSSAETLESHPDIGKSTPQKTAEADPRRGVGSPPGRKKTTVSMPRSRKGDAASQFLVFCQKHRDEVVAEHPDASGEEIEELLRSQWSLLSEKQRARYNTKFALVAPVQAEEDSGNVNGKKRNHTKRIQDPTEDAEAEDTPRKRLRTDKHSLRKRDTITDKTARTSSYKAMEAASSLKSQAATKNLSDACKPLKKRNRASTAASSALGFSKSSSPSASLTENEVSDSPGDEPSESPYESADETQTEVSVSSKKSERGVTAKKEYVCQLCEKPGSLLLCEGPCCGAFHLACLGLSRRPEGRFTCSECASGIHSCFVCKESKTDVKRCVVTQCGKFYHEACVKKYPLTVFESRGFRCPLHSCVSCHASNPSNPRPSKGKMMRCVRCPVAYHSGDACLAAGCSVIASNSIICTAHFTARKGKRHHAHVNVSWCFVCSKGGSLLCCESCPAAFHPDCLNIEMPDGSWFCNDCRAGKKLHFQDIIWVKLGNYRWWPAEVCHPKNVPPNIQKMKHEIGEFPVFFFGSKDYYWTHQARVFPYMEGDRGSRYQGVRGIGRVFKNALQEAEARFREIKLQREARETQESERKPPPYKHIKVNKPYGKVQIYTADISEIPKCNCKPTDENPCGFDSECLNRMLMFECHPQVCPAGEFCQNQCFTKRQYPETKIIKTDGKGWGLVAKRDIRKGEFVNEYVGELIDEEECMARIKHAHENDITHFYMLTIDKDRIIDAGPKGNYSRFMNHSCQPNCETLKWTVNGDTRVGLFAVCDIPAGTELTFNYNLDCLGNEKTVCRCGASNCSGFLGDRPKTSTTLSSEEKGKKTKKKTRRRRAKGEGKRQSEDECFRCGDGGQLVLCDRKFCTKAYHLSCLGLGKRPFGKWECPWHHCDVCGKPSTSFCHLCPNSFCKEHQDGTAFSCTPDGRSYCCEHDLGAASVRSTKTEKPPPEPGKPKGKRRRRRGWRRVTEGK

[6] = target: Tyrosyl-DNA phosphodiesterase 2 (Homo sapiens, UniProt O95551); assay: potency against TDP2 phosphodiesterase activity – biochemical, epi absorbance, IC50, dose response (AID 743297)
[7] = target: 1-phosphatidylinositol 4,5-bisphosphate phosphodiesterase gamma-1 (Homo sapiens, UniProt P19174); assay: Counterscreen for inhibitors of phospholipase C isozymes (PLC-B3): Fluorescence-based biochemical high throughput dose response assay to identify inhibitors of phospholipase C isozymes (PLC-gamma1).
Hexokinase HKDC1 = target: T2, Hexokinase HKDC1 (Homo sapiens, UniProt Q2TB90); assay: activation of HKDC1 glucose phosphorylation – biochemical, W721R variant, dose response (AID 504730); format: functional
T2 sequence (Q2TB90 whole entry): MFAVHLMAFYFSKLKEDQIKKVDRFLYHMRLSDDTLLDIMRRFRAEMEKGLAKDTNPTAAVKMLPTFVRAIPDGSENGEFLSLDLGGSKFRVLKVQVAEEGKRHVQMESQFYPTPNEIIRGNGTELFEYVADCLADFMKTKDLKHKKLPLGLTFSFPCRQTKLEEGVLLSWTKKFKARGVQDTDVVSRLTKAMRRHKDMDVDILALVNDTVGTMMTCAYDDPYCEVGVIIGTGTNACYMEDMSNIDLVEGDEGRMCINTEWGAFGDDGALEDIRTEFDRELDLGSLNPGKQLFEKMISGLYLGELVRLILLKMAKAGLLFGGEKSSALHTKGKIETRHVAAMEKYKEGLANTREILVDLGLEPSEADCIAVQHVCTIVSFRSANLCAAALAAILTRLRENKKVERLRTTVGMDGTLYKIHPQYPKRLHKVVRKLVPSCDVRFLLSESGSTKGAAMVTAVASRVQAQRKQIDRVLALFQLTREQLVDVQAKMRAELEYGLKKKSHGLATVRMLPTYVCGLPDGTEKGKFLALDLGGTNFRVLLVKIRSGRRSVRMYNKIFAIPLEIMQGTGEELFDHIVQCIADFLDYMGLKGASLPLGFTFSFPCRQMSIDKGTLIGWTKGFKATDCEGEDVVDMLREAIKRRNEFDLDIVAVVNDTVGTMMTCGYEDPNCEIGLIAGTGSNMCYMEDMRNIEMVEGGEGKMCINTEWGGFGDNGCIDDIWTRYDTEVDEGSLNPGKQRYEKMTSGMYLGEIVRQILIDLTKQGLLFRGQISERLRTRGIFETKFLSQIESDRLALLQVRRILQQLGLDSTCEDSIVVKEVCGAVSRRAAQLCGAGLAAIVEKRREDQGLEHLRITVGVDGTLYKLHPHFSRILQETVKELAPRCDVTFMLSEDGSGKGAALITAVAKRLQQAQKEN

Paired box protein Pax-8 = Paired box protein Pax-8 (Homo sapiens, UniProt Q06710); assay: PAX8 transcriptional activity inhibition in RMG-I – RMG-I cells, luciferase, cherry-pick, dose response (AID 687027); format: functional, cell-based;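 note: luciferase reporter driven by Pax8 target thyroperoxidase promoter measured by SteadyGlo luminescence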
Hexokinase-1 = target: T3, Hexokinase-1 (Homo sapiens, UniProt P19367); assay: HK1 enzyme activation by HKDC1 hits – biochemical, selectivity assay for HKDC1 activator project, dose response (AID 504762); format: functional
T3 sequence (P19367 whole entry): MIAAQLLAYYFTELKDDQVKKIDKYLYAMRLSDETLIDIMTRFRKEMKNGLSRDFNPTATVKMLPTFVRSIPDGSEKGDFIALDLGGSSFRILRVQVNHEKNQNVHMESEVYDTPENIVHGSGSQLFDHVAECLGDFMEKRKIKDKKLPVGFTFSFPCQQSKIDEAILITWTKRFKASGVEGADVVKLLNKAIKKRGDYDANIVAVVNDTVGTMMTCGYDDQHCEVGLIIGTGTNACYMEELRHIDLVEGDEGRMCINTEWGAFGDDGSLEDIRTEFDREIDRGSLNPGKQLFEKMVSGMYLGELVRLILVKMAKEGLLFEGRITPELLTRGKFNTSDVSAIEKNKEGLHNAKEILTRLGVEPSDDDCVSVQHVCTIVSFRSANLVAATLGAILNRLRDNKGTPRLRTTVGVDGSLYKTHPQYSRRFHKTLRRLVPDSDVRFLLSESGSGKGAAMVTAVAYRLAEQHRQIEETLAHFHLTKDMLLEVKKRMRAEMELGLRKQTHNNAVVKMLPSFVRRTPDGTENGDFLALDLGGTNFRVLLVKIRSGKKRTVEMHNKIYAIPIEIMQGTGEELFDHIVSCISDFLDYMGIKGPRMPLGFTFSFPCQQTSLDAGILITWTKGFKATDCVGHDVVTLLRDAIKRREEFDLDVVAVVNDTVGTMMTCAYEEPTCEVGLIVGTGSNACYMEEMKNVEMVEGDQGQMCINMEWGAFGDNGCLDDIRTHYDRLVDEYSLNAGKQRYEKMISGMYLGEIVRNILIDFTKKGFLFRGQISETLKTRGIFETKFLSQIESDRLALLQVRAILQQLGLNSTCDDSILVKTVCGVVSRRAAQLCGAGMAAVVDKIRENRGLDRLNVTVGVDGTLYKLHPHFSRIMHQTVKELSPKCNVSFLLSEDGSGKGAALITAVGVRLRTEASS

[8] = general cell-killing toxicity readout – plate reader, dry powder samples, cytotoxicity control for PAX8 inhibitor project, dose response (AID 743021); format: functional, cell-based
[9] = liver cell line viability loss – HepG2, luminescence plate reader, powder samples, set 2, cytotoxicity control, dose response (AID 651860); format: functional, cell-based
[10] = reduction of Shn3 3'UTR-driven luciferase in osteoblasts – cell-based, Clone20 osteoblasts, firefly luciferase, cherry-picked, dose response (AID 624132); format: functional;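 note: firefly luciferase luminescence from reporter carrying the Shn3 3'UTR in osteoblasts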
[11] = Shn3 3'UTR reporter signal decrease – cell-based, Clone20 osteoblasts, firefly luciferase, cherry-pick, set 2, Schnurri-3 inhibitor project, dose response (AID 720490); format: functional;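 note: actives lower the luminescence signal as inhibitors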
[12] = T. cruzi growth inhibition in host cells, dose response, cell-based, plate reader, dry powder, set 2 (AID 652275); format: functional
[13] = anti-trypanosomal activity in BESM host cells – imaging, CA-I/72 strain, bovine embryo skeletal muscle, dry powder, dose response (AID 651885); format: functional, cell-based
[14] = Trypanosoma cruzi replication inhibitors in host cells – cell-based, plate reader, dry powder samples, dose response (AID 651845); format: functional
[15] = cytotoxicity in MITF-independent A375 cells – cell-based, CellTiter-Glo luminescence, dry powder, set 4, counter-screen for MITF inhibitor project, dose response (AID 624364); format: functional; conditions: A-375;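 note: A375 melanoma cells are MITF independent so this is a counter screen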
[16] = viability loss in MITF-independent A375 cells – cell-based, CellTiter-Glo luminescence, dry powder, set 2, counter-screen for MITF inhibitor project, dose response (AID 624489); format: functional; conditions: A-375;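 note: actives are compounds lowering A375 viability meaning general cytotoxicity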
[17] = target: T4, NAD-dependent protein deacylase sirtuin-5, mitochondrial (Homo sapiens, UniProt Q9NXA8); assay: sirtuin-5 deacylation blockers, concentration series – biochemical, fluorescence imaging, cherry-pick, set 5, dose response (AID 720591);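 note: desuccinylation of succinyl peptide AMC substrate read as fluorescence after trypsin release; potency of inhibitors that lower fluorescence and may act on trypsin instead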
[18] = target: T4, NAD-dependent protein deacylase sirtuin-5, mitochondrial; assay: blockers of sirtuin-5 peptide desuccinylation – biochemical, fluorescence imaging, cherry-pick, set 6, dose response (AID 720597)
Kallikrein-7 = Kallikrein-7 (Homo sapiens, UniProt P49862); assay: Fluorescence Intensity-based biochemical primary high throughput dose response assay to identify activators of kallikrein-7 (K7) zymogen.
[19] = IC50 of Artemis nuclease activity blockers – biochemical, fluorescence intensity, dose response (AID 720701); format: functional;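 note: Artemis endonuclease enzyme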
[20] = reduced cellular PGC1a acetyl-lysine signal – cell-based, cherry-picked samples, dose response (AID 720514); format: functional;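 note: potency may reflect raised or lowered acetylation signal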

T4 sequence (Q9NXA8 whole entry): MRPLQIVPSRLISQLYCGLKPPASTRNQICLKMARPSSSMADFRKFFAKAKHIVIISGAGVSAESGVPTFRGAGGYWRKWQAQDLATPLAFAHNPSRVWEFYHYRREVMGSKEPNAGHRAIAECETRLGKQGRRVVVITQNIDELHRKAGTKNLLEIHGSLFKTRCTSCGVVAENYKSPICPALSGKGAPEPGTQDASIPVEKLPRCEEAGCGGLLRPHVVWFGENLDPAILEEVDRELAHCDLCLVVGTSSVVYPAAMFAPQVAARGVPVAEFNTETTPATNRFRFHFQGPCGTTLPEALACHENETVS
Sequence of Paired box protein Pax-8 (Q06710 whole entry): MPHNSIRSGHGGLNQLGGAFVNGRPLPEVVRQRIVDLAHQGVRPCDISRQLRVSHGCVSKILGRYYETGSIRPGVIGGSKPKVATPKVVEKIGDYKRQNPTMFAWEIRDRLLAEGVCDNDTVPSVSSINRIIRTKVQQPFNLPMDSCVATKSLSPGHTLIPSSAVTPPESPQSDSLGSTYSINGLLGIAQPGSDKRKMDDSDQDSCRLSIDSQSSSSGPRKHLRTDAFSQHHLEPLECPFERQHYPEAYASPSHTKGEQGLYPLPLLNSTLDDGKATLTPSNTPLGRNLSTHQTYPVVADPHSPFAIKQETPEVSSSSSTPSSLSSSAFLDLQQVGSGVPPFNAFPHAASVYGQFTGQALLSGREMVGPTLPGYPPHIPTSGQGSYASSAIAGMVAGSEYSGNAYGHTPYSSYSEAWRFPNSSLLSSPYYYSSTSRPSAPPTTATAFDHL
Sequence of 1-phosphatidylinositol 4,5-bisphosphate phosphodiesterase gamma-1 (P19174 whole entry): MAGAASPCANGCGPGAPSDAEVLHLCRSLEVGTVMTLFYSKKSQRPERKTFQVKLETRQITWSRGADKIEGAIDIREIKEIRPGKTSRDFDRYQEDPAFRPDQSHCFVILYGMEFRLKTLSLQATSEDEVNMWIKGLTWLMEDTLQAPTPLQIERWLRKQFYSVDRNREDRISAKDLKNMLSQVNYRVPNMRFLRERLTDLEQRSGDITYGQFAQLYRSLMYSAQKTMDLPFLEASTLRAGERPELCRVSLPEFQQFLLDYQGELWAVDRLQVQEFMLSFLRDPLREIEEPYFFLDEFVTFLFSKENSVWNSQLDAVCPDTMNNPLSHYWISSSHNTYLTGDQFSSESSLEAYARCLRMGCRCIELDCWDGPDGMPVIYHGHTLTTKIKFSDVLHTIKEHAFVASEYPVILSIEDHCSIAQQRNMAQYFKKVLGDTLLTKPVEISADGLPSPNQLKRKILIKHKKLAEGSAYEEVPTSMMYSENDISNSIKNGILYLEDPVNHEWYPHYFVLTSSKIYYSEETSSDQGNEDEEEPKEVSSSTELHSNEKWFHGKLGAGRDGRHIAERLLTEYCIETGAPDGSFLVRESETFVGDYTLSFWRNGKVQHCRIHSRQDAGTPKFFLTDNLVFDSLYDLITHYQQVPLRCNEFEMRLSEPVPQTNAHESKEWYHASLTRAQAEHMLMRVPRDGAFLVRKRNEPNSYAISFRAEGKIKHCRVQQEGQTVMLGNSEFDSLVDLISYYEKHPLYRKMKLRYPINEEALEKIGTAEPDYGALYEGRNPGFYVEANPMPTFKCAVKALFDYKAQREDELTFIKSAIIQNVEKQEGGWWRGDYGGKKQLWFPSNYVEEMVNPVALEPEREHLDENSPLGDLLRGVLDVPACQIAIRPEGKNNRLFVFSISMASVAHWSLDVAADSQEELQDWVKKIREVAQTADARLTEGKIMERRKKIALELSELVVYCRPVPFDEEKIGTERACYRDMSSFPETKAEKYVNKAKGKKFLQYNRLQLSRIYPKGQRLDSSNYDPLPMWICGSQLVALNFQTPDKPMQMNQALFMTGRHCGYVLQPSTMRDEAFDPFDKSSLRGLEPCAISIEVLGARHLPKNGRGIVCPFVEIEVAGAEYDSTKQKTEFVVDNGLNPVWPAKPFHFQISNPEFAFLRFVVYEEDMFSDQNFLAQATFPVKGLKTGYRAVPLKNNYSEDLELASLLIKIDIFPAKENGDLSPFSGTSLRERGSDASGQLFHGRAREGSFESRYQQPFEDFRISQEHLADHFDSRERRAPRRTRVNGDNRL
Sequence of Tyrosyl-DNA phosphodiesterase 2 (O95551 whole entry): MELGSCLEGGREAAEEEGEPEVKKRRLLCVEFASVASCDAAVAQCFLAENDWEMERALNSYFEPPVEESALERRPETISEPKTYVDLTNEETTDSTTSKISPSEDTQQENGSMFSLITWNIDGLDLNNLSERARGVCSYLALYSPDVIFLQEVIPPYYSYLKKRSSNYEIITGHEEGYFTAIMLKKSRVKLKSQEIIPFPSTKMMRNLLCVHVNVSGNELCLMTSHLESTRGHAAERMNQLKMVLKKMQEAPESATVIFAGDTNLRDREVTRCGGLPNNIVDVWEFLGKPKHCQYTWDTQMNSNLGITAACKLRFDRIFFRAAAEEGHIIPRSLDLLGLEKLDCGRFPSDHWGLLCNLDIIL
Sequence of 1-phosphatidylinositol 4,5-bisphosphate phosphodiesterase beta-3 (Q01970 whole entry): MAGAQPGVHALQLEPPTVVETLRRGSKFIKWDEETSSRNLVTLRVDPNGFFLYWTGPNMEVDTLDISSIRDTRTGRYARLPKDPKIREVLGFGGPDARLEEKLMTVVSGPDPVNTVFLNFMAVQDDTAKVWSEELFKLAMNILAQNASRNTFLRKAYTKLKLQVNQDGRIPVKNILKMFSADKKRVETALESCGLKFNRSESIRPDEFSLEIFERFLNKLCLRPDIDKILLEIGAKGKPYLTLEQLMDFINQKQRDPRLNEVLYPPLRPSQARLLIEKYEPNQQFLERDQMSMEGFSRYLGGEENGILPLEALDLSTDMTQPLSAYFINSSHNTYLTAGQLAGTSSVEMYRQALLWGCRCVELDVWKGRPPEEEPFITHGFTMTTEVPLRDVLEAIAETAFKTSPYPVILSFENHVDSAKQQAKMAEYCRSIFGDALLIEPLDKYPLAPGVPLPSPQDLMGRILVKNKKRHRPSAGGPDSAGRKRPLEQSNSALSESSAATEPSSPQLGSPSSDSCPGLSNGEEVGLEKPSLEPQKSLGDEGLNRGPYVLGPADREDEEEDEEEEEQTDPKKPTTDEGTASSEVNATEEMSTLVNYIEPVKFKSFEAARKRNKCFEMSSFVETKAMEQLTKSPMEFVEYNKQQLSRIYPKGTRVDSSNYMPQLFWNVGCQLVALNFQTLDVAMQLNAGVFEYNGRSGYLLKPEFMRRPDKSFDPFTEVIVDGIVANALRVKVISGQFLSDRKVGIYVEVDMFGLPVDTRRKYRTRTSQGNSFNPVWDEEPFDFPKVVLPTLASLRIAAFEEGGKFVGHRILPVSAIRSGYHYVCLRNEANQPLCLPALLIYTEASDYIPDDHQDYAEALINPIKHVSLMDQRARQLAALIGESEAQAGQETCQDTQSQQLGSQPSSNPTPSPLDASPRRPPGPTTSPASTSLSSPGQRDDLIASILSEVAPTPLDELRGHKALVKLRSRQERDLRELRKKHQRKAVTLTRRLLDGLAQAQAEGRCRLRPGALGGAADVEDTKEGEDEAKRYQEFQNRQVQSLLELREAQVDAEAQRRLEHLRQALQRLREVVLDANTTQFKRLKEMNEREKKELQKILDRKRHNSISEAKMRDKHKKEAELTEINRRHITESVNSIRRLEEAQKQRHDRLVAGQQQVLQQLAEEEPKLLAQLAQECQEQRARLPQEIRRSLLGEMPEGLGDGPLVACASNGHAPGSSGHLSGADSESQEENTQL
Sequence of Vasopressin V1b receptor (P47901 whole entry): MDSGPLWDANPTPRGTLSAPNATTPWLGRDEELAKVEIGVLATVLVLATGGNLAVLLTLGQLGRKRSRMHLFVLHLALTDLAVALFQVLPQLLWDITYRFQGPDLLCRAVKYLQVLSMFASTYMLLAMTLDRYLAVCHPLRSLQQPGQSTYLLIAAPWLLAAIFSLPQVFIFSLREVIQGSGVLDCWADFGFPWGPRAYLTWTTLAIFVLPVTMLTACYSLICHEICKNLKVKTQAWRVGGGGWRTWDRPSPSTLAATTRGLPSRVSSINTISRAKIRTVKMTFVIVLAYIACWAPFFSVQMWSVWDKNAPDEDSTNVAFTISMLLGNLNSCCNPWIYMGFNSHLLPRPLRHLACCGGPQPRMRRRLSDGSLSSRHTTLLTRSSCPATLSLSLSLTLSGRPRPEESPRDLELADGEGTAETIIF
Sequence of Vasopressin V2 receptor (P30518 whole entry): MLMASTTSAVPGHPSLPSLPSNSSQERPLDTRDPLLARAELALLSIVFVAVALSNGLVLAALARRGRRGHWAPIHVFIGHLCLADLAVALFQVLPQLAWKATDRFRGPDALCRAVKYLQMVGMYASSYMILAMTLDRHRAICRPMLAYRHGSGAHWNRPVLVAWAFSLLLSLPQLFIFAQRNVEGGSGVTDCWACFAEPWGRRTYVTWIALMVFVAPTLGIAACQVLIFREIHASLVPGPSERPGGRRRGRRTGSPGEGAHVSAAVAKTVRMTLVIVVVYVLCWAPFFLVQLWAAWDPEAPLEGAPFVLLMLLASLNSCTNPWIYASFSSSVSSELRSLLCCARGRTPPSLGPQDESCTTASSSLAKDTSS
Sequence of Kallikrein-7 (P49862 whole entry): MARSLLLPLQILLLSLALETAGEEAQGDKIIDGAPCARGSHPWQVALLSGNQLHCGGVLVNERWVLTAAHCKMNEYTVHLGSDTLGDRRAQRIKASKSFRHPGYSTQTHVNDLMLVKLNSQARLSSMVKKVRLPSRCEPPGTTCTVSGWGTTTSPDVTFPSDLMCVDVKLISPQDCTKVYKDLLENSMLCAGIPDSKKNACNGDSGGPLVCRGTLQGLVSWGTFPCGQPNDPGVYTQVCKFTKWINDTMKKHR

CC(CC(=O)Nc1cccc(Br)c1)=NNC(=O)c1ccc(O)cc1O
IC50 [1]: > 83.3 µM (inactive)

Cc1ccc(N(CC2CC2)C(=O)N2CCN(c3ccccc3C)CC2)cc1
IC50 [2]: 0.0069 µM (active)
IC50 (Vasopressin V2 receptor): 2.22 µM (active)
IC50 (Vasopressin V1b receptor): 17.6 µM (inactive)
IC50 [3]: 0.082 µM (active)

NC1=C(Cl)C(=O)c2ccc(S(N)(=O)=O)cc2C1=O
IC50 [4]: > 122 µM (inactive)
AC50 [5]: 0.144 µM (active)
IC50 [6]: 1.07 µM (active)
IC50 [7]: > 122 µM (inactive)
EC50 (Hexokinase HKDC1): > 80 µM (inactive)
AC50 (Paired box protein Pax-8): 1.47 µM (active)
EC50 (Hexokinase-1): 1.06 µM (active)
AC50 [8]: 8.31 µM (active)

NC(=O)[C@H]1CCCC[C@H]1C(=O)N1CCc2ccccc2[C@H]1CN1C(=O)c2ccccc2C1=O
AC50 [9]: > 52 µM (inactive)

CC(Oc1ccc(F)cc1)C(=O)N(CCC1=CCCCC1)c1c(N)n(Cc2ccccc2)c(=O)[nH]c1=O (stereo unspecified)
AC50 [10]: 7.99 µM (active)
AC50 [11]: 22.6 µM (active)

CC(C)N(C)C(=O)c1cccc(NC(=O)c2ccncc2)c1OCCCN(C)Cc1ccc(Oc2ccccc2)cc1
AC50 [12]: 0.381 µM (active)
IC50 [13]: 10.1 µM (inconclusive)
AC50 [14]: 0.386 µM (active)

O=C1C(NS(=O)(=O)c2cccs2)=C(N2CCCCC2)C(=O)c2ccccc21
AC50 [15]: > 70 µM (inactive)
AC50 [16]: > 70 µM (inactive)

COc1ccc(CN2C(=O)C(CC(=O)NCCc3ccccn3)CC(C(=O)N3CCOCC3)=C2C)cc1 (stereo unspecified)
AC50 [17]: > 30 µM (inactive)

C[C@@H]1CN([C@H](C)CO)C(=O)CCCn2nncc2CO[C@H]1CN(C)S(=O)(=O)c1ccc(Cl)cc1
AC50 [18]: 26.7 µM (active)

CC(=O)Nc1ccc2[nH]c(-c3cccs3)nc2c1
EC50 (Kallikrein-7): 8.78 µM (active)

Cc1ccc(CNC(=O)c2cc3c(=O)n4ccccc4nc3n(Cc3ccco3)c2=N)cc1
IC50 [19]: 17.3 µM (active)

CC(C)NC(=O)Nc1ccc2c(c1)C(=O)N([C@@H](C)CO)C[C@H](C)[C@@H](CN(C)C(=O)CCC(F)(F)F)OCCCC[C@@H](C)O2
AC50 [20]: 38 µM (active)
